According to ChEMBL document CHEMBL1275601, “Striking species difference in the contribution of concentrative nucleoside transporter 2 to nucleoside uptake between mouse and rat hepatocytes” (Antimicrob Agents Chemother, 2010):
The source made the active and inactive calls. The rule behind the calls is not given here.

Columns and labels:
Format in all cases: cell-based
[1] = system: Hepatocyte; assay: Transport through CNT1 in mouse hepatocytes by oil filtration assay in presence of sodium ions in Kreb-henseleit buffer
[2] = biological target: T1, Equilibrative nucleoside transporter 2 (Rattus norvegicus) (UniProt O54699); assay: Transport through ENT2 in rat hepatocytes by oil filtration assay in presence of sodium ions in Kreb-henseleit buffer; conditions: Hepatocyte
T1 sequence (whole entry): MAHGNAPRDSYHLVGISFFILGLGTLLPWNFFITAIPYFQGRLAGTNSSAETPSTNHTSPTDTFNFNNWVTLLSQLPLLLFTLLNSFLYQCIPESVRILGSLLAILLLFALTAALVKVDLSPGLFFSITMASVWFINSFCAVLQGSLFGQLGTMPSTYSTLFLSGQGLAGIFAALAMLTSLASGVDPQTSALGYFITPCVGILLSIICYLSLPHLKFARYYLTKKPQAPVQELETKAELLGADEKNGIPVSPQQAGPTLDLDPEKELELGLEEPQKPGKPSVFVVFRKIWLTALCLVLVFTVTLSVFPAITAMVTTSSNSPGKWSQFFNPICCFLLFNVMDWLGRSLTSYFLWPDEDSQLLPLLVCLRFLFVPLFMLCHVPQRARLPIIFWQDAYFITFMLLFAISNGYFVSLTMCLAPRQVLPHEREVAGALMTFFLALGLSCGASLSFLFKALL

[3] = system: Hepatocyte; assay: Transport through CNT3 in rat hepatocytes by oil filtration assay
[4] = biological target: T1, Equilibrative nucleoside transporter 2 (Rattus norvegicus); assay: Transport through ENT2 in rat hepatocytes by oil filtration assay in presence of sodium ions in Kreb-henseleit buffer containing 100 uM NBMPR; conditions: Hepatocyte
[5] = biological target: T2, Sodium/nucleoside cotransporter 1 (Rattus norvegicus) (UniProt Q62674); assay: Transport through CNT1 in rat hepatocytes by oil filtration assay in presence of sodium ions in Kreb-henseleit buffer containing 100 uM NBMPR and thymidine; conditions: Hepatocyte
T2 sequence (whole entry): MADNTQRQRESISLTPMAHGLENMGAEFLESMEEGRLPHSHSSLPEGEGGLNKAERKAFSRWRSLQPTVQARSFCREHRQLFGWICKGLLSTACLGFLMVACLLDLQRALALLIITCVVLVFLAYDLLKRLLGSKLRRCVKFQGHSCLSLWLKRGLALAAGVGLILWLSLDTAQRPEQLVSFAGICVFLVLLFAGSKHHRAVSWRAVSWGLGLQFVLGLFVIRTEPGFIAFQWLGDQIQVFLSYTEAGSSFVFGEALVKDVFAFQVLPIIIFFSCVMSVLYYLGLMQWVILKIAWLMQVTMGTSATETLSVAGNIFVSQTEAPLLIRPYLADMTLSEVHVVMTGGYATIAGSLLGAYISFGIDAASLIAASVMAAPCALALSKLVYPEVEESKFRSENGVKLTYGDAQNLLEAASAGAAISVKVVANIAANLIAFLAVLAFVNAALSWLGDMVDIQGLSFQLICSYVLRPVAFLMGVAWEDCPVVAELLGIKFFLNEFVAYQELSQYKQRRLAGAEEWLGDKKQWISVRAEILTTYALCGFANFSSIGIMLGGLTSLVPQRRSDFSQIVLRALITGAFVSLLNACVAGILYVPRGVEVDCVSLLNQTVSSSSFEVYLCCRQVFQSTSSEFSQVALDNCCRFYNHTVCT

[6] = biological target: T3, Sodium/nucleoside cotransporter 2 (Rattus norvegicus) (UniProt Q62773); assay: Transport through CNT2 in rat hepatocytes by oil filtration assay in presence of sodium ions in Kreb-henseleit buffer containing 100 uM NBMPR and 1 mM inosine; conditions: Hepatocyte
T3 sequence (whole entry): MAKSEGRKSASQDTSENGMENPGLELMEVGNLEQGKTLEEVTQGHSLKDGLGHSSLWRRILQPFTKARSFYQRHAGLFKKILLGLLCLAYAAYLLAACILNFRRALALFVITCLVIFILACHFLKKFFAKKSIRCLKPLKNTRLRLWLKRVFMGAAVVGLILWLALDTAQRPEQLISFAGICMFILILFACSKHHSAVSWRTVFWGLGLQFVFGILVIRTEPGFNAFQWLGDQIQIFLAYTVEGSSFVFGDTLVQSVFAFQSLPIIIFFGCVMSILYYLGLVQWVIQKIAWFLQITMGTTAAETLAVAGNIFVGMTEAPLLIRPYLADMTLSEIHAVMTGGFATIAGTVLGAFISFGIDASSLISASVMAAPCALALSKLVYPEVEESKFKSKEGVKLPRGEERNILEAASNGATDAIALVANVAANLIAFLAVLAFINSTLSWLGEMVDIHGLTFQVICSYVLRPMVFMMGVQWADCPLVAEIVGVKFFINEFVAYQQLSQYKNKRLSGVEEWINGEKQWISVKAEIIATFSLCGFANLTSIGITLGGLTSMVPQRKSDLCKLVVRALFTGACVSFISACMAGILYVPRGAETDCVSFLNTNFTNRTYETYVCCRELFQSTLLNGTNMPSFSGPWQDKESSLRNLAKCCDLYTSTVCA

[7] = biological target: T3, Sodium/nucleoside cotransporter 2 (Rattus norvegicus); assay: Transport through CNT2 in rat hepatocytes by oil filtration assay in presence of sodium ions in Kreb-henseleit buffer containing 100 uM NBMPR and 1 mM uridine; conditions: Hepatocyte
[8] = biological target: T4, Equilibrative nucleoside transporter 1 (Mus musculus) (UniProt Q9JIM1); assay: Transport through ENT1 in mouse hepatocytes by oil filtration assay in presence 100 uM of transporter inhibitor NBMRP; conditions: Hepatocyte
T4 sequence (whole entry): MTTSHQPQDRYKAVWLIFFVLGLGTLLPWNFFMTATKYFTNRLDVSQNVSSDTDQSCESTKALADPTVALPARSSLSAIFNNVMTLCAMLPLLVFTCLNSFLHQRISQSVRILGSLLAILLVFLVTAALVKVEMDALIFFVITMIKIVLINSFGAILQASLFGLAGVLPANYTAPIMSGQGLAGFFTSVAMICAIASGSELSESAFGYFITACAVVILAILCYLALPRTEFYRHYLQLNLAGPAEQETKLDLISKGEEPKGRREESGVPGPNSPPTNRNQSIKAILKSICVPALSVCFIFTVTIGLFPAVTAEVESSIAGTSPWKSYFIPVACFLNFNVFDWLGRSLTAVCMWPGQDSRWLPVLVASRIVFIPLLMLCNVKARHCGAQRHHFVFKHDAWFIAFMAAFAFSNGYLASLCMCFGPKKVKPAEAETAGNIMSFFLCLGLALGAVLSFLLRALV

| SMILES | Activity [1] | Activity [2] | Activity [3] | Activity [4] | Activity [5] | Activity [6] | Activity [7] | Activity [8] |
| --- | --- | --- | --- | --- | --- | --- | --- | --- |
| Nc1ncnc2c1ncn2[C@@H]1O[C@H](CO)[C@@H](O)[C@H]1O | inactive | Active | inactive | Active | inactive | inactive | inactive | inactive |
| NC(=O)c1ncn([C@@H]2O[C@H](CO)[C@@H](O)[C@H]2O)n1 | inactive | Active | Active | Active | inactive | inactive | inactive | inactive |
